Reference: paper PMC7402526, “An in vitro quantitative systems pharmacology approach for deconvolving mechanisms of drug-induced, multilineage cytopenias” (PLoS Computational Biology, 2020)

Tests used:
[1] = system: hematopoietic stem cells (HSCs); assay: Multi-lineage toxicity assay (MLTA), HSCs: concentration-response and QSP model fit; type: cell-based, human; conditions: Homo sapiens, Hematopoietic stem cell, 144 h
Outline: (§1)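 Freeze-thawed primary human bone marrow CD34+ cells were grown in SFEM II with a multi-lineage cytokine cocktail, drug added day 0, six days at 37°C. Lineage counts came from 17-parameter flow with TruCount beads, vehicle-normalized per donor, then fitted by an Emax-based QSP model.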

[2] = system: granulocyte-macrophage progenitor (GMPs); assay: MLTA, GMPs: concentration-response and QSP model fit; type: cell-based, human; conditions: Homo sapiens, 144 h, 6 days, normalized to vehicle control, read-out: GMPs normalized cell count
Outline: as §1

[3] = system: granulocytes (Gran-lin); assay: MLTA, Gran: concentration-response and QSP model fit; type: cell-based, human; conditions: Homo sapiens, 144 h
Outline: (§2)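 Drug was added at time 0 to thawed human bone marrow CD34+ cells in SFEM II plus a cytokine cocktail. After 6 days at 37°C, subsets were counted by surface-marker flow with TruCount beads. Vehicle-normalized, donor-pooled data then fed an Emax model separating anti-proliferative from cell-killing effects.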

[4] = system: monocytes (monocyte-lin); assay: MLTA, Mono: concentration-response and QSP model fit; type: cell-based, human; conditions: Homo sapiens, Monocyte, 144 h
Outline: as §2

[5] = system: MK cells (MK-lin); assay: MLTA, MK: concentration-response and QSP model fit; type: cell-based, human; conditions: Homo sapiens, 144 h
Outline: as §1

[6] = system: lymphocyte progenitors (LymP); assay: MLTA, LymP: concentration-response and QSP model fit; type: cell-based, human; conditions: Homo sapiens, Lymphocyte, 144 h
Outline: as §1

[7] = system: B cells (B-lin); assay: MLTA, B-lin: concentration-response and QSP model fit; type: cell-based, human; conditions: Homo sapiens, B-cell, 144 h
Outline: as §1

[8] = system: total dead cells (totalDeadCells); assay: MLTA, total dead cells concentration-response; type: cell-based; conditions: Homo sapiens, 144 h, 6 days, normalized to vehicle control, read-out: total_dead normalized cell count
Outline: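 Freeze-thawed primary human bone marrow CD34+ cells in SFEM II with cytokine cocktail, drug added day 0, 6 days at 37°C, 5% CO2. Live/dead counts by 17-parameter flow cytometry with DAPI exclusion, bead-normalized, volume-corrected to cells/mL. Normalized per donor to mean of six vehicle wells; 2–7 donors pooled.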

Work on `O=C1CCC(N2C(=O)c3ccccc3C2=O)C(=O)N1` (centres unmarked) [thalidomide] yielded an activity at 0.0002 µM ([1]; dose 0.2 nM, 6 days, normalized to vehicle control, read-out: HSCs normalized cell count) of 67.6%, an activity at 0.001 µM ([1]; dose 1 nM, 6 days, normalized to vehicle control, read-out: HSCs normalized cell count) of 92.6% and an activity at 0.005 µM ([1]; dose 5 nM, 6 days, normalized to vehicle control, read-out: HSCs normalized cell count) of 109%. The activity at 0.025 µM ([1]; dose 25 nM, 6 days, normalized to vehicle control, read-out: HSCs normalized cell count) was 96.3%, the activity at 0.1 µM ([1]; dose 100 nM, 6 days, normalized to vehicle control, read-out: HSCs normalized cell count) was 84.9% and the activity at 0.5 µM ([1]; dose 500 nM, 6 days, normalized to vehicle control, read-out: HSCs normalized cell count) was 99.8%. For the same molecule, the activity at 2.5 µM ([1]; dose 2500 nM, 6 days, normalized to vehicle control, read-out: HSCs normalized cell count) was 113%, the Emax ([1]; parameter from QSP model fitting, read-out: Emax_drug_HSC) was 0.000374% and the activity at 0.0002 µM ([2]; dose 0.2 nM) was 92.4%. The activity at 0.001 µM ([2]; dose 1 nM) was 107%, the activity at 0.005 µM ([2]; dose 5 nM) was 100% and the activity at 0.025 µM ([2]; dose 25 nM) was 112%. For the same molecule, the activity at 0.1 µM ([2]; dose 100 nM) was 97%, the activity at 0.5 µM ([2]; dose 500 nM) was 104% and the activity at 2.5 µM ([2]; dose 2500 nM) was 99%. It also gave an activity at 0.0002 µM ([3]; dose 0.2 nM, 6 days, normalized to vehicle control, read-out: Gran normalized cell count) of 85%, an activity at 0.001 µM ([3]; dose 1 nM, 6 days, normalized to vehicle control, read-out: Gran normalized cell count) of 100% and an activity at 0.005 µM ([3]; dose 5 nM, 6 days, normalized to vehicle control, read-out: Gran normalized cell count) of 110%. The activity at 0.025 µM ([3]; dose 25 nM, 6 days, normalized to vehicle control, read-out: Gran normalized cell count) was 126%, the activity at 0.1 µM ([3]; dose 100 nM, 6 days, normalized to vehicle control, read-out: Gran normalized cell count) was 94.9% and the activity at 0.5 µM ([3]; dose 500 nM, 6 days, normalized to vehicle control, read-out: Gran normalized cell count) was 92.7%. It also gave an activity at 2.5 µM ([3]; dose 2500 nM, 6 days, normalized to vehicle control, read-out: Gran normalized cell count) of 102%, an Emax ([3]; parameter from QSP model fitting, read-out: Emax_drug_Gran) of 0.01% and an activity at 0.0002 µM ([4]; dose 0.2 nM, 6 days, normalized to vehicle control, read-out: Mon normalized cell count) of 83.3%. It also gave an activity at 0.001 µM ([4]; dose 1 nM, 6 days, normalized to vehicle control, read-out: Mon normalized cell count) of 94%, an activity at 0.005 µM ([4]; dose 5 nM, 6 days, normalized to vehicle control, read-out: Mon normalized cell count) of 89.4% and an activity at 0.025 µM ([4]; dose 25 nM, 6 days, normalized to vehicle control, read-out: Mon normalized cell count) of 106%. The activity at 0.1 µM ([4]; dose 100 nM, 6 days, normalized to vehicle control, read-out: Mon normalized cell count) was 94.4%, the activity at 0.5 µM ([4]; dose 500 nM, 6 days, normalized to vehicle control, read-out: Mon normalized cell count) was 99.9% and the activity at 2.5 µM ([4]; dose 2500 nM, 6 days, normalized to vehicle control, read-out: Mon normalized cell count) was 97.3%. For the same molecule, the Emax ([4]; parameter from QSP model fitting, read-out: Emax_drug_Mono) was 0.00608%, the activity at 0.0002 µM ([5]; dose 0.2 nM, 6 days, normalized to vehicle control, read-out: MK normalized cell count) was 97.8% and the activity at 0.001 µM ([5]; dose 1 nM, 6 days, normalized to vehicle control, read-out: MK normalized cell count) was 103%. The activity at 0.005 µM ([5]; dose 5 nM, 6 days, normalized to vehicle control, read-out: MK normalized cell count) was 118%, the activity at 0.025 µM ([5]; dose 25 nM, 6 days, normalized to vehicle control, read-out: MK normalized cell count) was 114% and the activity at 0.1 µM ([5]; dose 100 nM, 6 days, normalized to vehicle control, read-out: MK normalized cell count) was 101%. The activity at 0.5 µM ([5]; dose 500 nM, 6 days, normalized to vehicle control, read-out: MK normalized cell count) was 88.1%, the activity at 2.5 µM ([5]; dose 2500 nM, 6 days, normalized to vehicle control, read-out: MK normalized cell count) was 105% and the Emax ([5]; parameter from QSP model fitting, read-out: Emax_drug_MK) was 0.00388%. For the same molecule, the activity at 0.0002 µM ([6]; dose 0.2 nM, 6 days, normalized to vehicle control, read-out: LymP normalized cell count) was 109%, the activity at 0.001 µM ([6]; dose 1 nM, 6 days, normalized to vehicle control, read-out: LymP normalized cell count) was 105% and the activity at 0.005 µM ([6]; dose 5 nM, 6 days, normalized to vehicle control, read-out: LymP normalized cell count) was 123%. It also gave an activity at 0.025 µM ([6]; dose 25 nM, 6 days, normalized to vehicle control, read-out: LymP normalized cell count) of 126%, an activity at 0.1 µM ([6]; dose 100 nM, 6 days, normalized to vehicle control, read-out: LymP normalized cell count) of 94.6% and an activity at 0.5 µM ([6]; dose 500 nM, 6 days, normalized to vehicle control, read-out: LymP normalized cell count) of 76.6%. For the same molecule, the activity at 2.5 µM ([6]; dose 2500 nM, 6 days, normalized to vehicle control, read-out: LymP normalized cell count) was 139%, the Emax ([6]; parameter from QSP model fitting, read-out: Emax_drug_LymP) was 0.0064% and the activity at 0.0002 µM ([7]; dose 0.2 nM, 6 days, normalized to vehicle control, read-out: B-lin normalized cell count) was 90.8%. For the same molecule, the activity at 0.001 µM ([7]; dose 1 nM, 6 days, normalized to vehicle control, read-out: B-lin normalized cell count) was 99.6%, the activity at 0.005 µM ([7]; dose 5 nM, 6 days, normalized to vehicle control, read-out: B-lin normalized cell count) was 108% and the activity at 0.025 µM ([7]; dose 25 nM, 6 days, normalized to vehicle control, read-out: B-lin normalized cell count) was 116%. The activity at 0.1 µM ([7]; dose 100 nM, 6 days, normalized to vehicle control, read-out: B-lin normalized cell count) was 93%, the activity at 0.5 µM ([7]; dose 500 nM, 6 days, normalized to vehicle control, read-out: B-lin normalized cell count) was 91.5% and the activity at 2.5 µM ([7]; dose 2500 nM, 6 days, normalized to vehicle control, read-out: B-lin normalized cell count) was 104%. For the same molecule, the Emax ([7]; parameter from QSP model fitting, read-out: Emax_drug_B) was 0.24%, the activity at 0.0002 µM ([8]; dose 0.2 nM) was 91.6% and the activity at 0.001 µM ([8]; dose 1 nM) was 109%. The activity at 0.005 µM ([8]; dose 5 nM) was 96.3%, the activity at 0.025 µM ([8]; dose 25 nM) was 120% and the activity at 0.1 µM ([8]; dose 100 nM) was 113%. It also gave an activity at 0.5 µM ([8]; dose 500 nM) of 105% and an activity at 2.5 µM ([8]; dose 2500 nM) of 99.8%.
